Reference: patent US12129244B2, “Modulators of Mas-related G-protein receptor X2 and related products and methods” (Escient Pharmaceuticals, Inc., priority 2022, dated 2024)

How the values were obtained:
human MRGPRX2 = biological target: T1, human MRGPRX2 (Homo sapiens, UniProt Q96LB1); experiment: MRGPRX2 activity: IP-One HTRF antagonist assay in CHO cells versus Cortistatin-14; type: cell-based; details: CHO cells stably expressing human MRGPRX2; versus 0.3 uM Cortistatin-14 agonist; IP-1 HTRF
T1 construct: expressed in transfected cells
T1 sequence (Q96LB1 1-330): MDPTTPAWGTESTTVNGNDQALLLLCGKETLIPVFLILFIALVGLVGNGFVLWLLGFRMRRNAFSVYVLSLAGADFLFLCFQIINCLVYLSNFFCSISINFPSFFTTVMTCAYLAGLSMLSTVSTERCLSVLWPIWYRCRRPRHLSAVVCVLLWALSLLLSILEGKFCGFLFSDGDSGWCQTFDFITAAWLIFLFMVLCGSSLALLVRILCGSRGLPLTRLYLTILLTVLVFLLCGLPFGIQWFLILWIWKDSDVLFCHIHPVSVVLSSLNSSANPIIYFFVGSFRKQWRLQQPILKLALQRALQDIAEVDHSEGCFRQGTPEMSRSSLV
Protocol: CHO cells stably transfected to express human MRGPRX2 were maintained in an incubator at 37° C. with 5% CO2 and grown in F12 (HAM) media with 10% fetal bovine serum (FBS), 1% Glutamax, 1% penicillin/streptomycin, 800 μg/mL Geneticin (G418), and 300 μg/mL Hygromycin B.
Cells were plated in a 384-well assay plate at 20,000 cells per well in 12 μL of Opti-MEM and kept in an incubator overnight. On the day of the assay, compounds solubilized at 10 mM in DMSO were added as a 10-point curve (30 uM final top concentration with 1:3 serial dilutions) using a Tecan D300E digital dispenser. Agonists were diluted in assay buffer (final concentrations of 5.7 mM Tris-HCl, 43 mM NaCl, 50 mM LiCl, pH=8) and 2 μL of the agonist Cortistatin-14 (CPC Scientific, catalog CORT-002) are added to each well. Final concentrations of agonists were 0.3 μM Cortistatin. Final concentrations of DMSO were kept consistent across the plate. Plates were incubated in the dark for 1 h at 37° C. and then for 1 h at room temperature. IP-1 standards and HTRF detection reagents were added according to the IP-One-Gq Kit purchased from Cisbio (part number 62IPAPEJ) and incubated in the dark for 1 h at room temperature. The plate was read on a Molecular Devices SpectraMax iD5 plate reader. The HTRF ratio was calculated from the raw data and graphed using GraphPad Prism to calculate an IC50 value for each compound.
The activity ranges are denoted as follows: “+++++” denotes antagonist activity <100 nM; “++++” denotes antagonist activity between 100 and 500 nM; “+++” denotes activity between 501 and 1000 nM; “[…]” denotes activity between 1001 and 2500 nM; and “+” denotes activity >2500 nM

[1] = Mouse Pharmacokinetics Studies (50 mg/kg oral gavage, plasma LC-MS/MS); type: in vivo; details: Male C57BL/6 mice, non-fasted; for AUC(0-t) / Cmax / Tmax: mouse; for Tmax: read-out: PK: Tmax
Protocol: Compounds were formulated in 5% DMSO, 5% Solutol, and 90% PBS without Ca and Mg (pH 7.4) at a concentration of 5 mg/mL. Male C57BL/6 mice (n=3/compound) were administered a 50 mg/kg dose of each compound by oral gavage under a non-fasted condition. Blood samples were collected via the saphenous vein onto K2-EDTA at 0.25, 0.5, 1, 2, 4, 8 and 24 hours after dosing, and plasma was prepared and stored at −80° C. until analysis. Plasma sample preparation for analysis was done by protein precipitation using acetonitrile (including Verapamil as an internal standard) followed by centrifugation. Compound concentrations were determined in extracted plasma using LC-MS/MS relative to a 12-point standard curve covering the 1 to 4000 nM range. Non-compartmental analysis using Phoenix WinNonlin was used to estimate pharmacokinetic parameters including area under the curve, clearance, and half-life. The administered dose was confirmed by analysis of residual dosing material by UPLC-UV relative to a single point calibration sample.

| IC50 (human MRGPRX2) | AUC 0-24 [1] | AUC(0-t) [1] | Cmax [1] | Tmax [1] | Structure (SMILES) |
| --- | --- | --- | --- | --- | --- |
| < 100 nM | 130 µM·h | 130 µM·h | 15 µM | 2.3 h | Cc1ccc(C(=O)N[C@@H]2CCC[C@H](Nc3cc(C(F)(F)F)nc4ccc(Cl)cc34)C2)cn1 [Example 4-403] |
| – | 230 µM·h | 230 µM·h | 19 µM | 3.7 h | O=C(N[C@@H]1CCC[C@H](Nc2cc(C(F)(F)F)nc3ccc(Cl)cc23)C1)c1cnn(C(F)F)c1 [Example 4-399] |
| < 100 nM | 220 µM·h | 220 µM·h | 46 µM | 0.83 h | Nc1ccc(C(=O)N[C@@H]2CCC[C@H](Nc3cc(C(F)(F)F)nc4ccc(Cl)cc34)C2)cn1 [Example 3-19] |
| – | 290 µM·h | 290 µM·h | 44 µM | 1 h | CCn1cc(C(=O)N[C@@H]2CCC[C@H](Nc3cc(C(F)(F)F)nc4ccc(Cl)cc34)C2)cn1 [Example 4-366] |
| < 100 nM | 280 µM·h | 280 µM·h | 25 µM | 2.7 h | Nc1ncccc1C(=O)N[C@@H]1CCC[C@H](Nc2cc(C(F)(F)F)nc3ccc(Cl)cc23)C1 [Example 4-409] |
| < 100 nM | – | – | – | – | CNc1cc(C(=O)N[C@@H]2CCC[C@H](Nc3cc(C(F)(F)F)nc4ccc(Cl)cc34)C2)ccc1OC [Example 4-413] |
| < 100 nM | – | – | – | – | O=C(N[C@@H]1CCC[C@H](Nc2cc(C(F)(F)F)nc3ccc(Cl)cc23)C1)c1ccn2cnnc2c1 [Example 4-397] |
| < 100 nM | – | – | – | – | O=C(N[C@@H]1CCC[C@H](Nc2cc(C(F)(F)F)nc3ccc(Cl)cc23)C1)c1ncco1 [Example 4-424] |

The remaining lines, values behind:

| Structure (SMILES) | IC50 (human MRGPRX2) | AUC 0-24 [1] | AUC(0-t) [1] | Cmax [1] | Tmax [1] |
| --- | --- | --- | --- | --- | --- |
| Cc1nn(C(C)C)cc1C(=O)N[C@@H]1CCC[C@H](Nc2cc(C(F)(F)F)nc3ccc(Cl)cc23)C1 [Example 4-402] | < 100 nM | 150 µM·h | 150 µM·h | 14 µM | 2 h |
| CNc1ccccc1C(=O)N[C@@H]1CCC[C@H](Nc2cc(C(F)(F)F)nc3ccc(C)cc23)C1 [Example 4-165] | 501 to 1000 nM | – | – | – | – |
| COc1ccc(C(=O)N[C@@H]2CCC[C@H](Nc3cc(C(F)(F)F)nc4ccc(F)cc34)C2)cc1 [Example 1-4] | – | 120 µM·h | 120 µM·h | 8.6 µM | 6.7 h |
| O=C(N[C@@H]1CCC[C@H](Nc2cc(C(F)(F)F)nc3ccc(Cl)cc23)C1)c1cnn(C2CCCCC2)c1 [Example 4-487] | < 100 nM | – | – | – | – |
| O=C(N[C@@H]1CCC[C@H](Nc2cc(C(F)(F)F)nc3ccc(Cl)cc23)C1)c1ccc(C(=O)N2CCOCC2)cc1 [Example 3-20] | < 100 nM | – | – | – | – |
| O=C(N[C@@H]1CCC[C@H](Nc2cc(C(F)(F)F)nc3ccc(Cl)cc23)C1)c1cccc2[nH]ccc12 [Example 4-223] | < 100 nM | – | – | – | – |
| CC1C(C(=O)N[C@@H]2CCC[C@H](Nc3cc(C(F)(F)F)nc4ccccc34)C2)CC2CC1C2(C)C (mixture of isomers) [Example 4-64] | > 2500 nM | – | – | – | – |
| O=C(N[C@@H]1CCC[C@H](Nc2cc(C(F)(F)F)nc3ccc(Cl)cc23)C1)c1c[nH]nc1C(F)F [Example 4-511] | < 100 nM | – | – | – | – |
| Cc1c(C(=O)N[C@@H]2CCC[C@H](Nc3cc(C(F)(F)F)nc4ccc(Cl)cc34)C2)cnn1C1CCNCC1 [Example 19, N-((1R,3S)-3-((6-chloro-2-(trifluoromethyl)quinolin-4-yl)amino)cyclohexyl)-5-methyl-1-(piperidin-4-yl)-1H-pyrazole-4-carboxamide] | < 100 nM | – | – | – | – |
| COC(=O)c1cccc(C(=O)N[C@@H]2CCC[C@H](Nc3cc(C(F)(F)F)nc4ccccc34)C2)c1 [Example 3-5] | 100 to 500 nM | – | – | – | – |
| O=C(N[C@@H]1CCC[C@H](Nc2cc(C(F)(F)F)nc3ccccc23)C1)c1coc2ccccc2c1=O (racemic) [Example 4-111] | > 2500 nM | – | – | – | – |
| O=C(N[C@@H]1CCC[C@H](Nc2cc(C(F)(F)F)nc3ccccc23)C1)c1ccc2[nH]c(-c3ccncc3)nc2c1 [Example 4-181] | 100 to 500 nM | – | – | – | – |
